Source: PMC8333425, “Discovery of a dual Ras and ARF6 inhibitor from a GPCR endocytosis screen” (Nature Communications, 2021)

Key:
Test in all cases: KINOMEscan kinase binding assay
[1] = molecular target: T1, 384 kinases from the human genome (Homo sapiens, UniProt O14757); conditions: kinase CHEK1 (Entrez CHEK1)
T1 construct: purchased Eurofin/DiscoverX
In short: (§1)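 Competition binding (KINOMEscan) across 384 human kinases with compound at 10 µM. Ligand binding was expressed relative to DMSO (100%) as the average of duplicates from one experiment. S(10) selectivity score was derived.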

[2] = molecular target: T2, 384 kinases from the human genome (Homo sapiens, UniProt O14936); conditions: kinase CASK (Entrez CASK)
T2 construct: purchased Eurofin/DiscoverX
In short: as §1

[3] = molecular target: T3, 384 kinases from the human genome (Homo sapiens, UniProt O15264); conditions: kinase p38-delta (Entrez MAPK13)
T3 construct: purchased Eurofin/DiscoverX
In short: as §1

[4] = molecular target: T4, 384 kinases from the human genome (Homo sapiens, UniProt O75385); conditions: kinase ULK1 (Entrez ULK1)
T4 construct: purchased Eurofin/DiscoverX
In short: as §1

[5] = molecular target: T5, 384 kinases from the human genome (Homo sapiens, UniProt O75747); conditions: kinase PIK3C2G (Entrez PIK3C2G)
T5 construct: purchased Eurofin/DiscoverX
In short: as §1

[6] = molecular target: T6, 384 kinases from the human genome (Homo sapiens, UniProt O95819); conditions: kinase MAP4K4 (Entrez MAP4K4)
T6 construct: purchased Eurofin/DiscoverX
In short: as §1

[7] = molecular target: T7, 384 kinases from the human genome (Homo sapiens, UniProt O96013); conditions: kinase PAK4 (Entrez PAK4)
T7 construct: purchased Eurofin/DiscoverX
In short: as §1

[8] = molecular target: T8, 384 kinases from the human genome (Homo sapiens, UniProt P08631); conditions: kinase HCK (Entrez HCK)
T8 construct: purchased Eurofin/DiscoverX
In short: as §1

[9] = molecular target: T9, 384 kinases from the human genome (Homo sapiens, UniProt P27361); conditions: kinase ERK1 (Entrez MAPK3)
T9 construct: purchased Eurofin/DiscoverX
In short: as §1

[10] = molecular target: T10, 384 kinases from the human genome (Homo sapiens, UniProt P42336); conditions: kinase PIK3CA (Entrez PIK3CA)
T10 construct: purchased Eurofin/DiscoverX
In short: as §1

[11] = molecular target: T11, 384 kinases from the human genome (Homo sapiens, UniProt P43403); conditions: kinase ZAP70 (Entrez ZAP70)
T11 construct: purchased Eurofin/DiscoverX
In short: as §1

[12] = molecular target: T12, 384 kinases from the human genome (Homo sapiens, UniProt P51617); conditions: kinase IRAK1 (Entrez IRAK1)
T12 construct: purchased Eurofin/DiscoverX
In short: as §1

[13] = molecular target: T13, 384 kinases from the human genome (Homo sapiens, UniProt P51817); conditions: kinase PRKX (Entrez PRKX)
T13 construct: purchased Eurofin/DiscoverX
In short: as §1

[14] = molecular target: T14, 384 kinases from the human genome (Homo sapiens, UniProt P54762); conditions: kinase EPHB1 (Entrez EPHB1)
T14 construct: purchased Eurofin/DiscoverX
In short: as §1

[15] = molecular target: T15, 384 kinases from the human genome (Homo sapiens, UniProt P78356); conditions: kinase PIP5K2B (Entrez PIP4K2B)
T15 construct: purchased Eurofin/DiscoverX
In short: as §1

[16] = molecular target: T16, 384 kinases from the human genome (Homo sapiens, UniProt Q07912); conditions: kinase TNK2 (Entrez TNK2)
T16 construct: purchased Eurofin/DiscoverX
In short: as §1

[17] = molecular target: T17, 384 kinases from the human genome (Homo sapiens, UniProt Q15746); conditions: kinase MYLK (Entrez MYLK)
T17 construct: purchased Eurofin/DiscoverX
In short: as §1

[18] = molecular target: T18, 384 kinases from the human genome (Homo sapiens, UniProt Q15831); conditions: kinase LKB1 (Entrez STK11)
T18 construct: purchased Eurofin/DiscoverX
In short: as §1

[19] = molecular target: T19, 384 kinases from the human genome (Homo sapiens, UniProt Q56UN5); conditions: kinase YSK4 (Entrez MAP3K19)
T19 construct: purchased Eurofin/DiscoverX
In short: as §1

[20] = molecular target: T20, 384 kinases from the human genome (Homo sapiens, UniProt Q6P2M8); conditions: kinase CAMK1B (Entrez PNCK)
T20 construct: purchased Eurofin/DiscoverX
In short: as §1

[21] = molecular target: T21, 384 kinases from the human genome (Homo sapiens, UniProt Q86UE8); conditions: kinase TLK2 (Entrez TLK2)
T21 construct: purchased Eurofin/DiscoverX
In short: as §1

[22] = molecular target: T22, 384 kinases from the human genome (Homo sapiens, UniProt Q96GD4); conditions: kinase AURKB (Entrez AURKB)
T22 construct: purchased Eurofin/DiscoverX
In short: as §1

[23] = molecular target: T23, 384 kinases from the human genome (Homo sapiens, UniProt Q9NWZ3); conditions: kinase IRAK4 (Entrez IRAK4)
T23 construct: purchased Eurofin/DiscoverX
In short: as §1

[24] = molecular target: T24, 384 kinases from the human genome (Homo sapiens, UniProt Q9UBE8); conditions: kinase NLK (Entrez NLK)
T24 construct: purchased Eurofin/DiscoverX
In short: as §1

[25] = molecular target: T25, 384 kinases from the human genome (Homo sapiens, UniProt Q9UF33); conditions: kinase EPHA6 (Entrez EPHA6)
T25 construct: purchased Eurofin/DiscoverX
In short: as §1

[26] = molecular target: T26, 384 kinases from the human genome (Homo sapiens, UniProt Q9UPZ9); conditions: kinase ICK (Entrez ICK)
T26 construct: purchased Eurofin/DiscoverX
In short: as §1

T5 sequence (O75747 whole entry): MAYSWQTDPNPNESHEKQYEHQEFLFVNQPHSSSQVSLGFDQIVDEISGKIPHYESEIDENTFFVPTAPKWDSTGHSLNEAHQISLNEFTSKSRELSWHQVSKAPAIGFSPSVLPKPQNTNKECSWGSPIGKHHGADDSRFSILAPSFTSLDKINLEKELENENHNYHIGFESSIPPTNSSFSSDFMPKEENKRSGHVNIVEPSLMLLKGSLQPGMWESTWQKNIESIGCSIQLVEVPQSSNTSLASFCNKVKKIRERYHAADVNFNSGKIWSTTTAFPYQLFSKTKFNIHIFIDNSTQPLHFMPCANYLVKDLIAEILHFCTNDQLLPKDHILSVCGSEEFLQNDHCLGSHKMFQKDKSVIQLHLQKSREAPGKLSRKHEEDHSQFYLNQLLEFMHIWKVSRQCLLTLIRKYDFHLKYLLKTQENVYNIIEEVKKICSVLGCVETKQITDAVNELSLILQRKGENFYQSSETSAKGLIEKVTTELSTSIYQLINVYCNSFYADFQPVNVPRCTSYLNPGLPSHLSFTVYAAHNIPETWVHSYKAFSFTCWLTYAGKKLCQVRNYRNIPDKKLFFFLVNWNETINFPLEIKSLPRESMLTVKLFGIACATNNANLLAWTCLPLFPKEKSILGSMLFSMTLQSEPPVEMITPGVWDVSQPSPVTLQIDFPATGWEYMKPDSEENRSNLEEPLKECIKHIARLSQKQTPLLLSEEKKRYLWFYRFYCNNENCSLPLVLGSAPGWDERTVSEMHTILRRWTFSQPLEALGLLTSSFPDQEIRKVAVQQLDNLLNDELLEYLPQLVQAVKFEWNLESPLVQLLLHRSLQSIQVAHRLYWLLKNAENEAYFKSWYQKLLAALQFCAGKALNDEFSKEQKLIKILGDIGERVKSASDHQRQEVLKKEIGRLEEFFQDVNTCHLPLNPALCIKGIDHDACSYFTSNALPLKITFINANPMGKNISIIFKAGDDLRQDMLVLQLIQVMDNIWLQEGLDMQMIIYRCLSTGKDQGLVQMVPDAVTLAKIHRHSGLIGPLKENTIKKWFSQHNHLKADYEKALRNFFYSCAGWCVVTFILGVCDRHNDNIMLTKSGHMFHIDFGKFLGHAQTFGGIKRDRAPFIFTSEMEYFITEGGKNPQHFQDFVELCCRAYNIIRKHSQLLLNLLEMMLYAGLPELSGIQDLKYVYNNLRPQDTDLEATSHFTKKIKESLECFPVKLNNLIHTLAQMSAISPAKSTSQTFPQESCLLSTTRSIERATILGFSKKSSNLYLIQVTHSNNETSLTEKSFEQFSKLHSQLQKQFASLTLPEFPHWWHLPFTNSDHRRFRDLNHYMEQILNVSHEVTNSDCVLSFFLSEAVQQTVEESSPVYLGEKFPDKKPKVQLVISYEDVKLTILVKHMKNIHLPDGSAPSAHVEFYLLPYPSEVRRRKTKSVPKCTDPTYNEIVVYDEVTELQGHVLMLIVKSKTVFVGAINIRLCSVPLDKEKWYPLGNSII
T9 sequence (P27361 whole entry): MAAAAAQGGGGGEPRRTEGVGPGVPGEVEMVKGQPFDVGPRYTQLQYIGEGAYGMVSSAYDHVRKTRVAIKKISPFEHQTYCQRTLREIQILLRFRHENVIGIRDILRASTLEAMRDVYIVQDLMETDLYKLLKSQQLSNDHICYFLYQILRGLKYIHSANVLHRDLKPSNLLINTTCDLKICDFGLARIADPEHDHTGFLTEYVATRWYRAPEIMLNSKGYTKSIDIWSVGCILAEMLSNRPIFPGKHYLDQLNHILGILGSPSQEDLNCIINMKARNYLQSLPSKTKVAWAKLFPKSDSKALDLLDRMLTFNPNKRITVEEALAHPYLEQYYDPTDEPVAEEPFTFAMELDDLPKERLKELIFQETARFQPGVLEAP
T3 sequence (O15264 whole entry): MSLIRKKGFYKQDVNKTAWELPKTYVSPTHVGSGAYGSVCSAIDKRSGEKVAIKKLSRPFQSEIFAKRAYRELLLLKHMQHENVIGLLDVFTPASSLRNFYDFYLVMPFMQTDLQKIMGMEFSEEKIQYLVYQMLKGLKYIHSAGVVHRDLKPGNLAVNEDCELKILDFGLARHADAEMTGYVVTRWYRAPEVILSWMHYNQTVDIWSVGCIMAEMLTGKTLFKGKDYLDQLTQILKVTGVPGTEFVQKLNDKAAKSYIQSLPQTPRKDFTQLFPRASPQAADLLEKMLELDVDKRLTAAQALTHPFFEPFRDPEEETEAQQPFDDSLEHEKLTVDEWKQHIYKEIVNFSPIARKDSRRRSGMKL
T14 sequence (P54762 18-984): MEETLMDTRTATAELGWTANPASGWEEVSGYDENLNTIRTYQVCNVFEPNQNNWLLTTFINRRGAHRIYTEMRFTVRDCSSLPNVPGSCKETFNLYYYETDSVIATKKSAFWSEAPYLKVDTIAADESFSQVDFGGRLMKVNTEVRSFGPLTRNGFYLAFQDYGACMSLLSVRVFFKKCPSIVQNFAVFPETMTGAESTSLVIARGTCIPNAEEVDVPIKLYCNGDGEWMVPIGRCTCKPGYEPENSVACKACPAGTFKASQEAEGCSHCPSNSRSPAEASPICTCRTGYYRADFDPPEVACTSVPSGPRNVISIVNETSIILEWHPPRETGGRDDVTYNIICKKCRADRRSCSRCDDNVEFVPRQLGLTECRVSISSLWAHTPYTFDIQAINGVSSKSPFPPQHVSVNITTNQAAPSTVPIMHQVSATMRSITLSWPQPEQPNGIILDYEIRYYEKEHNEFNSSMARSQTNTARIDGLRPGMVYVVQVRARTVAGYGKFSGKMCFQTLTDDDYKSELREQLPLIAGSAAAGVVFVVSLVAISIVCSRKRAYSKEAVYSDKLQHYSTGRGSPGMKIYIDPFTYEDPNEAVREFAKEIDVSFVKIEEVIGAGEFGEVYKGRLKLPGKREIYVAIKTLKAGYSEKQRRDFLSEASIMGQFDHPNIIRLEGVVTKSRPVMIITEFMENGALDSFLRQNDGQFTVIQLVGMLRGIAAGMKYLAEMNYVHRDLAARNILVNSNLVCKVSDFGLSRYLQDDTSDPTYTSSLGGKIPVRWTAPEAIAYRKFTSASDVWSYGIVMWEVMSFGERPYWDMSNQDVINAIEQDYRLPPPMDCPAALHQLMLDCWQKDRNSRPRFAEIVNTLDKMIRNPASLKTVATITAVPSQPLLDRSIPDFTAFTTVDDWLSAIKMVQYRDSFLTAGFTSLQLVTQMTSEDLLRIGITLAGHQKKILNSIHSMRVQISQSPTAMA
T15 sequence (P78356 whole entry): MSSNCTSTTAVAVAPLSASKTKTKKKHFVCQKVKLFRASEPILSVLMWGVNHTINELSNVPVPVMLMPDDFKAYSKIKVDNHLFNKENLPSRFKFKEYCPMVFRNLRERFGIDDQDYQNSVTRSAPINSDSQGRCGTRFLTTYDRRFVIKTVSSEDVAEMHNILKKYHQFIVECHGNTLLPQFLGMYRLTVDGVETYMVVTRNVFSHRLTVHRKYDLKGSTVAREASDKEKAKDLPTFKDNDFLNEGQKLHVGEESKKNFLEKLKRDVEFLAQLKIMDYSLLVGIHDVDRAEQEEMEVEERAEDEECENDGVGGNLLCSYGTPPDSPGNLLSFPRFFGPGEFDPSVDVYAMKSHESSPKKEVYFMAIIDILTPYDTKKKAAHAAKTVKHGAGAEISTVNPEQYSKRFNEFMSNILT
T18 sequence (Q15831 whole entry): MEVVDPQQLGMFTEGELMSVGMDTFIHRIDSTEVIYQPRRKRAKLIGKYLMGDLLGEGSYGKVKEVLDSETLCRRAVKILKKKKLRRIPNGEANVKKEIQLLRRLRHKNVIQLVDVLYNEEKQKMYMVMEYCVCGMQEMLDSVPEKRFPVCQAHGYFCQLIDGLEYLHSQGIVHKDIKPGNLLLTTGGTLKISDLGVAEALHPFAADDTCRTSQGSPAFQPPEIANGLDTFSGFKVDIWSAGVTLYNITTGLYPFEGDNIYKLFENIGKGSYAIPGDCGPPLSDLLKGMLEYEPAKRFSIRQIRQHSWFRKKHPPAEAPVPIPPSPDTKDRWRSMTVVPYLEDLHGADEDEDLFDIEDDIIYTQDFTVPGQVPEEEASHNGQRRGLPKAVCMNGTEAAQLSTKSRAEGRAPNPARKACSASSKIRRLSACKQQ
T25 sequence (Q9UF33 23-1036): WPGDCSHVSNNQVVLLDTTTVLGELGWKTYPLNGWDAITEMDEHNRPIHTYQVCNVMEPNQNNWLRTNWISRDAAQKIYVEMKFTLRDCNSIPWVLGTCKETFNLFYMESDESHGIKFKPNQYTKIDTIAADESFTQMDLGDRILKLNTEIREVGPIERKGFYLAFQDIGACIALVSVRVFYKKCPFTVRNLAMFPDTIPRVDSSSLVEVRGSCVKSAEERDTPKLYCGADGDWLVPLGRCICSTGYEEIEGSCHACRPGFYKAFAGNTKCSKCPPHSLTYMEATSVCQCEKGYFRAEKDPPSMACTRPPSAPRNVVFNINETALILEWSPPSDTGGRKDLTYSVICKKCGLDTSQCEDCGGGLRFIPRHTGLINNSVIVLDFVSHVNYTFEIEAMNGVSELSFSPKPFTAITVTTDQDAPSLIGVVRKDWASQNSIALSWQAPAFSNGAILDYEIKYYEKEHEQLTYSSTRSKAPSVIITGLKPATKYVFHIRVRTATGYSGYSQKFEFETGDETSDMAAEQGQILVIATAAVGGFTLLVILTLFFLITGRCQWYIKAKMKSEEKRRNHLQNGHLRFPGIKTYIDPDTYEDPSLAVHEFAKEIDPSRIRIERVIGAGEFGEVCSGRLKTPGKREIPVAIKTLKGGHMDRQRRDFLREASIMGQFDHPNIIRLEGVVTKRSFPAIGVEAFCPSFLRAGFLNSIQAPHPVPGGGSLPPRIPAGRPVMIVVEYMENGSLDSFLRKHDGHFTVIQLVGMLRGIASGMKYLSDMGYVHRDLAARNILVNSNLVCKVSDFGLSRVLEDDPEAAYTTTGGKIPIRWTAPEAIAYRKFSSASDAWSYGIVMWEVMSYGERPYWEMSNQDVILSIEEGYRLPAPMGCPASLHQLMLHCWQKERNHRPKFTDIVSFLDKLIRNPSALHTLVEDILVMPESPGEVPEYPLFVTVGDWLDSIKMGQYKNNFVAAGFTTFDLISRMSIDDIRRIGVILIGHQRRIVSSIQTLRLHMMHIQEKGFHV

CC(C)C(=O)N1CCN(c2ccc(NC(=O)c3cc4ccccc4o3)cc2Cl)CC1 [Compound 21]
Percent Control [1]: 92% | Percent Control [2]: 100% | Percent Control [3]: 88% | Percent Control [4]: 97% | Percent Control [5]: 100% | Percent Control [6]: 66% | Percent Control [7]: 100% | Percent Control [8]: 99% | Percent Control [9]: 93% | Percent Control [10]: 100% | Percent Control [11]: 98% | Percent Control [12]: 99% | Percent Control [13]: 100% | Percent Control [14]: 94% | Percent Control [15]: 83% | Percent Control [16]: 68% | Percent Control [17]: 93% | Percent Control [18]: 67% | Percent Control [19]: 98% | Percent Control [20]: 77% | Percent Control [21]: 100% | Percent Control [22]: 83% | Percent Control [23]: 76% | Percent Control [24]: 100% | Percent Control [25]: 75% | Percent Control [26]: 81%
